Experimental data reported in patent publication US6046238A, “Method for treating or preventing the spread of acne vulgaris” (TriStrata, Inc., priority 1999, dated 2000).
Converted amounts (≈) assume the structure as drawn. “Also recorded” adds a separate entry of the source. Read-outs that look alike come from different tables or passages of the source.

Assays:
[1] = tested on: Corynebacterium minutissium; assay: MIC Agar Dilution Test, Corynebacterium minutissium; type: cell-based; details: C. minutissium
Excerpt: (§1) The following strains of microorganisms were used in Minimum Inhibitory Concentration (MIC) tests for phenyl 2-acetoxyethanoic acid in this example and for benzoyl peroxide, chlorhexidine gluconate and triclosan in the following examples. In total, five strains were used for S. aureus, five strains were used for S. epidermidis, two strains were used for M. sedentarius, three strains were used for M. luteus, two strains were used for B. epidermis, three strains were used for C. minutissium, one strain was used for S. marcescens, three strains were used for P. aeruginosa, four strains were used for E. coli, and thirty-two strains were used for P. acnes.
(§2) Antimicrobial effects were determined based on MIC Agar Dilution Test utilizing Trypticase Soy Agar II (BBL) incorporation plates with and without 10% intralipid (Kabi Pharmacia Inc.). Initially, phenyl 2-acetoxyethanoic acid was prepared as a 2 mg/ml (0.2%) solution in water. This solution with serial dilution was incorporated into the test agar plates. The MIC test gave similar results when the same species but a different strain was used.
(§3) Under the same test conditions described in Example 1, benzoyl peroxide was prepared as a 2.5 mg/ml (0.25%) solution in water. This solution with serial dilution was incorporated into the test agar plates. Typical test results are shown as follows.
(§4) Under the same test conditions described in Example 1, chlorhexidine gluconate was prepared as a 2 mg/ml (0.2%) solution in water. This solution with serial dilution was incorporated into the test agar plates. Typical test results are shown as follows.
(§5) Under the same test conditions described in Example 1, triclosan was prepared as a 10 mg/ml (1%) solution in water. This solution with serial dilution was incorporated into the test agar plates. Typical test results are shown as follows.
(§6) Ten different species of bacteria were used in Minimum Inhibitory Concentration (MIC) tests. The bacteria include S. aureus, S. epidermidis,M. sedentarius, M. luteus, B. epidermis, C. minutissium, S. marcescens, P. aeruginosa, E. coli, and P. acnes. In addition various sources and strains of these bacteria were also included in the tests, and up to 32 different strains of P. acnes were used.
(§7) The test substance selected from phenyl 2-acetoxyethanoic acid, benzoyl peroxide, chlorhexidine gluconate and triclosan was dissolved in water, and the solution with serial dilution was incorporated into the test agar plates. The plates containing different concentrations of test substance were inoculated with a strain of bacterium. MIC is defined as the lowest concentration of the test substance in the plate in which there is no growth of the microorganism.

[2] = tested on: Escherichia coli; assay: MIC Agar Dilution Test, Escherichia coli; type: cell-based; details: E. coli
Excerpt: as §1, §2, §3, §4, §5, §6, §7

[3] = axillary antiodor effectiveness (treatment); type: in vivo, human; details: 0.5%
Excerpt: In another study the subjects were instructed not to take a shower in the morning. After the foul odor developed in both axillae, the subjects were instructed to apply the test composition containing 0.5% phenyl 2-acetoxyethanoic acid or diphenyl 2-acetoxyethanoic acid on the left underarm area and the control vehicle on the right underarm area. Topical applications were made once daily for several days.
Usually the left underarm ceased emanating any detectable foul odor after 1 day of topical use. The subjects were instructed at this time to apply the test composition containing 0.5% phenyl 2-acetoxyethanoic acid or diphenyl 2-acetoxyethanoic acid on the right underarm area also. Topical applications were made once daily for several days. The right axilla ceased to emanate any detectable foul odor after 1 to 2 days of topical use.

[4] = prevention and treatment of foot malodor; type: in vivo, human; details: 1% in talc powder
Experimental: A typical test for prophylactic effect in preventing the development of, as well as treatment of, foot malodor was carried out as follows. A test composition in powder form was prepared by mixing 1 g of finely powdered phenyl 2-acetoxyethanoic acid with 99 g of talc powder. The talc powder alone was used as a control vehicle.
A human subject had persistent foot malodor all year round. […] On the first morning, the subject was instructed to spread the test composition lightly on the left foot and also inside the hose. The control vehicle was used on the right foot and inside the hose. […] The subject was then instructed to apply the test composition on both feet the second morning.
A total of six subjects (three females; three males) participated in several studies.
A test composition containing 1% phenyl 2-acetoxyethanoic acid in powder form was prepared by mixing thoroughly 1 g of finely powdered compound with 99 g of talc powder. The talc powder alone was used as a control vehicle. The test composition and the control vehicle were packaged in one-ounce powder containers. The participating subjects were instructed to lightly spread the test composition on the bottom of the left foot and inside the hose or sock on the first morning.
The criteria for ineffectiveness or effectiveness of the test composition were based on presence or absence of malodor as detected by olfactory sense of smell. Both feet were monitored by the subject and at least one other person in the evening.
The subjects were then instructed to apply the test composition on both feet the next morning. […] The same topical applications were continued by all the participants for several days to confirm the above results.

[5] = topical treatment of folliculitis and perifolliculitis; type: in vivo, human; details: 0.9%, twice daily; nine patients
Experimental: Nine patients having various degrees of folliculitis and perifolliculitis participated in this study. A test composition containing 0.9% phenyl 2-acetoxyethanoic acid or diphenyl 2-acetoxyethanoic acid was prepared by dissolving 0.9 g compound in 79.1 ml 2-propanol, 15 ml butane-1,3-diol and 5 ml nonoxynol-6. The composition was packaged in one-ounce bottles. The patients were instructed to apply the test composition twice daily on the infected skin lesions and involved areas. Topical applications were continued up to 8 weeks.

[6] = 10% intralipid, read-out: MIC Lipid
[7] = no lipid, read-out: MIC No Lipid

CC(=O)OC(C(=O)O)c1ccccc1 (stereo not shown) [phenyl 2-acetoxyethanoic acid]
MIC [1, 6]: 500 µg/mL (≈ 2.57 mM)
MIC [1, 7]: 500 µg/mL (≈ 2.57 mM)
MIC [2, 6]: 1000 µg/mL (≈ 5.15 mM)
MIC [2, 7]: 1000 µg/mL (≈ 5.15 mM)
overall axillary antiodor effectiveness ([3]; topical): topically effective in eradicating the axillary foul odor
left axilla on continued use ([3]; continued, once daily for several days): continued to maintain the condition free of any offensive foul odor
time after which left underarm usually ceased emanating any detectable foul odor ([3]; no-shower study, left side): 1 days
intensity of foul odor, left underarm ([3]; no-shower study, once daily): diminished in intensity of foul odor after one to two days of topical application
time after which left underarm ceased emanating any detectable foul odor ([3]; Example 6, once daily, one person, left side): 1 days
time after which right axilla ceased to emanate any detectable foul odor ([3]; Example 6, right side, formerly vehicle): 1 days
overall effectiveness against foot malodor [4]: topically effective in preventing the development of and in treating foot malodor; also recorded: topically effective in preventing the development of and was also therapeutically effective for topical treatment of foot malodor
malodor of both feet at the end of the second day ([4]; both feet treated): produced no detectable malodor
malodor of left foot by the first evening ([4]; left foot treated, right foot vehicle): produced no detectable malodor in all the participating subjects
malodor on continued application ([4]; several days): complete suppression of malodor was sustained
deeper lesions of papules [5]: eradicated or substantially improved after 4 to 8 weeks of topical applications
superficial folliculitis and perifolliculitis lesions [5]: eradicated or substantially improved after a few days of topical applications
